# Test results from publication PMC11642016 (International Journal of Molecular Sciences, 2024).
# Where “and” joins values, the source holds several entries; their conditions need not be identical. Equal entries are not always repeated. Where two headings read alike, the source gives them in different places.
# Columns and labels:
# PANC-1 cells = assay: CellTiter-Glo luminescent cell viability assay, PANC-1; conditions: for viability at 2.8 µM: read-out: Cell Viability (% of Control) 2.8 µM, PANC-1; for viability at 2.8 µM / viability at 8.3 µM / viability at 25 µM: mean ± SD, n = 2; for viability at 8.3 µM: read-out: Cell Viability (% of Control) 8.3 µM, PANC-1; for viability at 25 µM: read-out: Cell Viability (% of Control) 25 µM, PANC-1
# Procedure: (§1) Primary fibroblast cultures were prepared from human skin biopsies and maintained in DMEM supplemented with 10% FBS, 1% penicillin-streptomycin, and 1% MEM Non-Essential Amino Acids Solution (Thermo Fisher Scientific). […] All cell lines were cultured in a humidified atmosphere at 37 °C and 5% CO2, passaged twice a week, and the experiments were performed on cells between passage 5 and 15. The cell lines were routinely screened for the absence of mycoplasma infection (DAPI staining).
# (§2) The effects of the synthesized compounds on cell viability were measured using the CellTiter-Glo® luminescent cell viability assay (Promega, Madison, WI, USA), according to the manufacturer’s instructions. Briefly, cells were seeded onto a flat-bottomed, white 96-well plate (BRANDplates, cat. no.: 781965)), with the following densities: PANC-1: 750 cells/well, Fadu: 2000 cells/well, primary fibroblasts: 2000 cells/well, HEK293T WT: 1000 cells/well, HEK293T CLPP^−/−: 2500 cells/well. After seeding, cells were incubated for a further 48 h before treatment. Cells were treated with the compounds for 72 h. Three concentrations (25.0 µM; 8.3 µM; 2.8 µM) were applied during the initial cell viability screening, while for the determination of dose–response curves, 1.5-fold serially diluted compound concentrations were applied (range: 26 µM–0.7 µM). After treatment, the luminescence signal was recorded using a microplate reader (BioTek Synergy 2 Multi-Mode Reader, BioTek, Winooski, VT, USA).
# (§3) Data analysis was performed using GraphPad Prism 9.5.0 software (GraphPad Software, San Diego, CA, USA). […] The dose–response curves were generated by four-parameter nonlinear regression, and the IC50 values were determined as the means ± SEM of the best-fit values of 3 independent measurements. The R^2 values were consistently above 0.93, indicating a strong fit of the model to the experimental data (Supplementary S.89). […] Dunnett’s post hoc test was applied to adjust for multiple comparisons, minimizing the likelihood of false positive results. Assumptions for ANOVA, including normality (assessed via QQ plots) and homogeneity of variance (tested using the Brown–Forsythe test), were verified. The following significance levels were applied: * p < 0.05, ** p < 0.01, *** p < 0.001, **** p < 0.0001. […] The tumor selectivity of the compounds was quantitatively characterized by the selectivity index (SI). This parameter was calculated as the ratio of the average best-fit IC50 value for primary fibroblasts and the best-fit IC50 value for the corresponding tumor cells (PANC-1 or Fadu).
# in vitro [1] = conditions: human, HEK293T WT Cell viability (% of controll), dose–response, individual replicates
# Procedure: as §1, §2, §3
# Fadu cells = assay: CellTiter-Glo luminescent cell viability assay, Fadu; conditions: for viability at 2.8 µM: read-out: Cell Viability (% of Control) 2.8 µM, Fadu; for viability at 2.8 µM / viability at 8.3 µM / viability at 25 µM: mean ± SD, n = 2; for viability at 8.3 µM: read-out: Cell Viability (% of Control) 8.3 µM, Fadu; for viability at 25 µM: read-out: Cell Viability (% of Control) 25 µM, Fadu
# HEK293T WT cells = assay: CellTiter-Glo cell viability assay, HEK293T WT; conditions: for HEK293T WT Cell viability (% of controll): dose–response, individual replicates
# Procedure: as §1, §2, §3
# in vitro [2] = conditions: human, fibroblast viability in the tested concentration range, dose–response range 26–0.7 µM
# Procedure: as §1, §2, §3
# [3] = 0.7 μM, 72 h, dose–response, individual replicates
# [4] = 1 μM, 72 h, dose–response, individual replicates
# [5] = 1.5 μM, 72 h, dose–response, individual replicates
# [6] = 2.3 μM, 72 h, dose–response, individual replicates
# [7] = 3.4 μM, 72 h, dose–response, individual replicates
# [8] = 5.1 μM, 72 h, dose–response, individual replicates
# [9] = 7.7 μM, 72 h, dose–response, individual replicates
# [10] = 17.3 μM, 72 h, dose–response, individual replicates
# [11] = 26 μM, 72 h, dose–response, individual replicates
# [12] = Homo sapiens, PANC-1, 72 h, 72 h, first-set screening
# [13] = Homo sapiens, PANC-1, 72 h, 72 h, second-set screening
# [14] = Homo sapiens, FaDu, 72 h, 72 h, first-set screening
# [15] = Homo sapiens, FaDu, 72 h, 72 h, second-set screening
structure (smiles),measurement,setting,value
"Cc1ccccc1CN1C(=O)C2=C(CCN(Cc3ccccc3)C2)N2CCN=C12 [ONC201, reference compound]",PANC-1 Cell viability (% of controll),PANC-1 cells; [3],92 % of controll and 97 % of controll
same,PANC-1 Cell viability (% of controll),PANC-1 cells; [4],102 % of controll and 101 % of controll
same,PANC-1 Cell viability (% of controll),PANC-1 cells; [5],86 % of controll and 101 % of controll
same,PANC-1 Cell viability (% of controll),PANC-1 cells; [6],78 % of controll and 84 % of controll
same,PANC-1 Cell viability (% of controll),PANC-1 cells; [7],57 % of controll and 60 % of controll
same,PANC-1 Cell viability (% of controll),PANC-1 cells; [8],51 % of controll and 54 % of controll
same,PANC-1 Cell viability (% of controll),PANC-1 cells; [9],43 % of controll and 48 % of controll
same,PANC-1 Cell viability (% of controll),PANC-1 cells; [10],37 % of controll and 35 % of controll
same,PANC-1 Cell viability (% of controll),PANC-1 cells; [11],32 % of controll and 29 % of controll
same,viability at 2.8 µM,PANC-1 cells; [12],69 ± 1%
same,viability at 2.8 µM,PANC-1 cells; [13],59 ± 9%
same,viability at 8.3 µM,PANC-1 cells; [12],58 ± 1%
same,viability at 8.3 µM,PANC-1 cells; [13],35 ± 2%
same,viability at 25 µM,PANC-1 cells; [12],53 ± 2%
same,viability at 25 µM,PANC-1 cells; [13],22 ± 2%
same,IC50,"PANC-1 cells; Homo sapiens, PANC-1, 72 h, read-out: IC50 Value ± SEM PANC-1, 72 h treatment, best-fit values, n = 3",3.1 ± 0.26 µM
same,viability at 0.7 µM,"PANC-1 cells; Homo sapiens, PANC-1, 72 h, read-out: PANC-1 Cell viability (% of controll), 0.7 μM, 72 h, dose–response, individual replicates",90%
same,viability at 1 µM,"PANC-1 cells; Homo sapiens, PANC-1, 72 h, read-out: PANC-1 Cell viability (% of controll), 1 μM, 72 h, dose–response, individual replicates",94%
same,viability at 1.5 µM,"PANC-1 cells; Homo sapiens, PANC-1, 72 h, read-out: PANC-1 Cell viability (% of controll), 1.5 μM, 72 h, dose–response, individual replicates",85%
same,viability at 2.3 µM,"PANC-1 cells; Homo sapiens, PANC-1, 72 h, read-out: PANC-1 Cell viability (% of controll), 2.3 μM, 72 h, dose–response, individual replicates",72%
same,viability at 3.4 µM,"PANC-1 cells; Homo sapiens, PANC-1, 72 h, read-out: PANC-1 Cell viability (% of controll), 3.4 μM, 72 h, dose–response, individual replicates",64%
same,viability at 5.1 µM,"PANC-1 cells; Homo sapiens, PANC-1, 72 h, read-out: PANC-1 Cell viability (% of controll), 5.1 μM, 72 h, dose–response, individual replicates",49%
same,viability at 7.7 µM,"PANC-1 cells; Homo sapiens, PANC-1, 72 h, read-out: PANC-1 Cell viability (% of controll), 7.7 μM, 72 h, dose–response, individual replicates",46%
same,viability at 17.3 µM,"PANC-1 cells; Homo sapiens, PANC-1, 72 h, read-out: PANC-1 Cell viability (% of controll), 17.3 μM, 72 h, dose–response, individual replicates",34%
same,viability at 26 µM,"PANC-1 cells; Homo sapiens, PANC-1, 72 h, read-out: PANC-1 Cell viability (% of controll), 26 μM, 72 h, dose–response, individual replicates",33%
same,IC50,"PANC-1 cells; Homo sapiens, PANC-1, read-out: PANC-1 IC50 values, Mean, mean of independently fitted replicate IC50 values (Supplement S.6)",3.05 µM
same,IC50,"PANC-1 cells; Homo sapiens, PANC-1, read-out: PANC-1 IC50 values, individual replicates n1-n3, IC50 independently determined for each replicate measurement (Supplement S.6)",3.22 µM
same,IC50,"PANC-1 cells; read-out: PANC-1 IC50 values, individual replicates n1-n3, IC50 independently determined for each replicate measurement (Supplement S.6)",3.14 µM and 2.78 µM
same,"viability at 72 h, 0.6 µM",in vitro [1]; 0.6 μM,60%
same,"viability at 72 h, 1 µM",in vitro [1]; 1.0 μM,30%
same,"viability at 72 h, 1.6 µM",in vitro [1]; 1.6 μM,28%
same,"viability at 72 h, 2.5 µM",in vitro [1]; 2.5 μM,21%
same,"viability at 72 h, 4 µM",in vitro [1]; 4.0 μM,19%
same,"viability at 72 h, 6.4 µM",in vitro [1]; 6.4 μM,18%
same,"viability at 72 h, 16.25 µM",in vitro [1]; 16.25 μM,15%
same,"viability at 72 h, 26 µM",in vitro [1]; 26 μM,15%
same,Fadu Cell viability (% of controll),Fadu cells; [3],93 % of controll
same,Fadu Cell viability (% of controll),Fadu cells; [4],86 % of controll and 77 % of controll
same,Fadu Cell viability (% of controll),Fadu cells; [5],59 % of controll and 51 % of controll
same,Fadu Cell viability (% of controll),Fadu cells; [6],55 % of controll and 30 % of controll
same,Fadu Cell viability (% of controll),Fadu cells; [7],26 % of controll
same,Fadu Cell viability (% of controll),Fadu cells; [8],26 % of controll
same,Fadu Cell viability (% of controll),Fadu cells; [9],28 % of controll and 27 % of controll
same,Fadu Cell viability (% of controll),Fadu cells; [10],23 % of controll and 24 % of controll
same,Fadu Cell viability (% of controll),Fadu cells; [11],22 % of controll and 24 % of controll
same,viability at 2.8 µM,Fadu cells; [14],31 ± 1%
same,viability at 2.8 µM,Fadu cells; [15],38 ± 5%
same,viability at 8.3 µM,Fadu cells; [14],29 ± 1%
same,viability at 8.3 µM,Fadu cells; [15],31 ± 2%
same,viability at 25 µM,Fadu cells; [14],27 ± 1%
same,viability at 25 µM,Fadu cells; [15],25 ± 3%
same,viability at 0.7 µM,"Fadu cells; Homo sapiens, FaDu, 72 h, read-out: Fadu Cell viability (% of controll), 0.7 μM, 72 h, dose–response, individual replicates",94%
same,viability at 1 µM,"Fadu cells; Homo sapiens, FaDu, 72 h, read-out: Fadu Cell viability (% of controll), 1 μM, 72 h, dose–response, individual replicates",85%
same,viability at 1.5 µM,"Fadu cells; Homo sapiens, FaDu, 72 h, read-out: Fadu Cell viability (% of controll), 1.5 μM, 72 h, dose–response, individual replicates",66%
same,viability at 3.4 µM,"Fadu cells; Homo sapiens, FaDu, 72 h, read-out: Fadu Cell viability (% of controll), 3.4 μM, 72 h, dose–response, individual replicates",40%
same,viability at 5.1 µM,"Fadu cells; Homo sapiens, FaDu, 72 h, read-out: Fadu Cell viability (% of controll), 5.1 μM, 72 h, dose–response, individual replicates",39%
same,viability at 7.7 µM,"Fadu cells; Homo sapiens, FaDu, 72 h, read-out: Fadu Cell viability (% of controll), 7.7 μM, 72 h, dose–response, individual replicates",38%
same,viability at 17.3 µM,"Fadu cells; Homo sapiens, FaDu, 72 h, read-out: Fadu Cell viability (% of controll), 17.3 μM, 72 h, dose–response, individual replicates",33%
same,viability at 26 µM,"Fadu cells; Homo sapiens, FaDu, 72 h, read-out: Fadu Cell viability (% of controll), 26 μM, 72 h, dose–response, individual replicates",31%
same,IC50,"Fadu cells; Homo sapiens, FaDu, 72 h, read-out: IC50 Value ± SEM Fadu, 72 h treatment, best-fit values, n = 3",1.3 ± 0.15 µM
same,IC50,"Fadu cells; Homo sapiens, FaDu, read-out: Fadu IC50 values, Mean, mean of independently fitted replicate IC50 values (Supplement S.6)",1.34 µM
same,IC50,"Fadu cells; Homo sapiens, FaDu, read-out: Fadu IC50 values, individual replicates n1-n3, IC50 independently determined for each replicate measurement (Supplement S.6)",1.35 µM
same,IC50,"Fadu cells; read-out: Fadu IC50 values, individual replicates n1-n3, IC50 independently determined for each replicate measurement (Supplement S.6)",1.41 µM and 1.26 µM
same,HEK293T WT Cell viability (% of controll),"HEK293T WT cells; 0.4 μM, 72 h",105 % of controll and 96 % of controll and 95 % of controll
same,HEK293T WT Cell viability (% of controll),"HEK293T WT cells; 0.6 μM, 72 h",70 % of controll and 65 % of controll and 68 % of controll
same,HEK293T WT Cell viability (% of controll),"HEK293T WT cells; 1.0 μM, 72 h",32 % of controll and 31 % of controll
same,HEK293T WT Cell viability (% of controll),"HEK293T WT cells; 1.6 μM, 72 h",25 % of controll and 29 % of controll
same,HEK293T WT Cell viability (% of controll),"HEK293T WT cells; 2.5 μM, 72 h",19 % of controll and 22 % of controll and 23 % of controll
same,HEK293T WT Cell viability (% of controll),"HEK293T WT cells; 4.0 μM, 72 h",19 % of controll and 22 % of controll and 20 % of controll
same,HEK293T WT Cell viability (% of controll),"HEK293T WT cells; 6.4 μM, 72 h",19 % of controll and 22 % of controll and 20 % of controll
same,HEK293T WT Cell viability (% of controll),"HEK293T WT cells; 16.25 μM, 72 h",18 % of controll and 19 % of controll
same,HEK293T WT Cell viability (% of controll),"HEK293T WT cells; 26 μM, 72 h",15 % of controll and 16 % of controll and 18 % of controll
same,IC50,"HEK293T WT cells; Homo sapiens, HEK-293T, 72 h, read-out: IC50 (µM) HEK293T WT, 72 h treatment, ± SEM, best-fit values, n = 4",0.6 ± 0.03 µM
same,IC50,"HEK293T WT cells; Homo sapiens, HEK-293T, read-out: HEK293T WT IC50 values, Mean, mean of independently fitted replicate IC50 values (Supplement S.6)",0.56 µM
same,IC50,"HEK293T WT cells; Homo sapiens, HEK-293T, read-out: HEK293T WT IC50 values, individual replicates n1-n4, IC50 independently determined for each replicate measurement (Supplement S.6)",0.394 µM
same,IC50,"HEK293T WT cells; read-out: HEK293T WT IC50 values, individual replicates n1-n4, IC50 independently determined for each replicate measurement (Supplement S.6)",0.626 µM and 0.558 µM and 0.643 µM
same,viability at 72 h,in vitro [2],> 50%
